Laboratory results published in PubChem BioAssay (NCI).
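Five compound concentrations were applied to cells in 96-well plates for 48 hours; endpoints were derived by simple linear interpolation of the resulting dose-response curve. TGI denotes the concentration required for complete inhibition of growth.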

How the values were obtained:
Assay in all cases: NCI-60 cell line screen, 48 h
NCI/ADR-RES ovarian = test system: NCI/ADR-RES ovarian
HOP-92 NSCLC = test system: HOP-92 NSCLC
NCI-H23 lung = test system: NCI-H23 lung
SN12C renal = test system: SN12C renal
CAKI-1 renal = test system: CAKI-1 renal
UO-31 renal = test system: UO-31 renal
TK-10 renal = test system: TK-10 renal
HT29 colon = test system: HT29 colon
A549 NSCLC = test system: A549 NSCLC
SNB-19 CNS = test system: SNB-19 CNS
SF-268 CNS = test system: SF-268 CNS
LOX IMVI melanoma = test system: LOX IMVI melanoma
A498 renal = test system: A498 renal
HCC-2998 colon = test system: HCC-2998 colon
OVCAR-4 ovarian = test system: OVCAR-4 ovarian
OVCAR-5 ovarian = test system: OVCAR-5 ovarian
MALME-3M melanoma = test system: MALME-3M melanoma
SF-295 CNS = test system: SF-295 CNS
T-47D breast = test system: T-47D breast
SK-OV-3 ovarian = test system: SK-OV-3 ovarian
U251 CNS = test system: U251 CNS
NCI-H522 lung = test system: NCI-H522 lung
BT-549 breast = test system: BT-549 breast
NCI-H226 lung = test system: NCI-H226 lung
KM12 colon = test system: KM12 colon
HOP-62 NSCLC = test system: HOP-62 NSCLC
PC-3 prostate = test system: PC-3 prostate
SR leukemia = test system: SR leukemia
UACC-257 melanoma = test system: UACC-257 melanoma
SK-MEL-2 melanoma = test system: SK-MEL-2 melanoma
MDA-MB-231 breast = test system: MDA-MB-231 breast
K-562 leukemia = test system: K-562 leukemia
RPMI-8226 leukemia = test system: RPMI-8226 leukemia
SNB-75 CNS = test system: SNB-75 CNS
ACHN renal = test system: ACHN renal
MDA-MB-435 = test system: MDA-MB-435
SF-539 CNS = test system: SF-539 CNS
EKVX NSCLC = test system: EKVX NSCLC
SK-MEL-5 melanoma = test system: SK-MEL-5 melanoma
HCT-116 colon = test system: HCT-116 colon
OVCAR-3 ovarian = test system: OVCAR-3 ovarian
COLO 205 colon = test system: COLO 205 colon
DU-145 prostate = test system: DU-145 prostate
CCRF-CEM leukemia = test system: CCRF-CEM leukemia
MCF7 breast = test system: MCF7 breast
M14 melanoma = test system: M14 melanoma
UACC-62 melanoma = test system: UACC-62 melanoma
IGROV1 ovarian = test system: IGROV1 ovarian
SK-MEL-28 melanoma = test system: SK-MEL-28 melanoma
HCT-15 colon = test system: HCT-15 colon
HL-60(TB) leukemia = test system: HL-60(TB) leukemia
SW-620 colon = test system: SW-620 colon
HS 578T breast = test system: HS 578T breast
786-0 renal = test system: 786-0 renal
NCI-H460 lung = test system: NCI-H460 lung
MDA-N = test system: MDA-N
RXF 393 renal = test system: RXF 393 renal
OVCAR-8 ovarian = test system: OVCAR-8 ovarian
MOLT-4 leukemia = test system: MOLT-4 leukemia

In the case of `COc1ccc(/C=C/C(=O)c2cccc(C(=O)/C=C/c3ccc(OC)c(OC)c3)n2)cc1OC`, the TGI (NCI/ADR-RES ovarian) is reported as over 86.8 µM, the TGI (HOP-92 NSCLC) is reported as over 100 µM and the TGI (NCI-H23 lung) is reported as over 100 µM. The TGI (SN12C renal) was 30.1 µM, the TGI (CAKI-1 renal) was over 100 µM and the TGI (UO-31 renal) was 43.4 µM. It also gave a TGI (TK-10 renal) of over 100 µM, a TGI (HT29 colon) of 31.6 µM and a TGI (A549 NSCLC) of over 100 µM. It also gave a TGI (SNB-19 CNS) of 99.1 µM, a TGI (SF-268 CNS) of over 89.3 µM and a TGI (LOX IMVI melanoma) of 10.6 µM. It also gave a TGI (A498 renal) of over 100 µM, a TGI (HCC-2998 colon) of over 100 µM and a TGI (OVCAR-4 ovarian) of over 100 µM. The TGI (OVCAR-5 ovarian) was over 91.2 µM, the TGI (MALME-3M melanoma) was 70.5 µM and the TGI (SF-295 CNS) was over 100 µM. The TGI (T-47D breast) was over 100 µM, the TGI (SK-OV-3 ovarian) was over 100 µM and the TGI (U251 CNS) was over 55.7 µM. For the same compound, the TGI (NCI-H522 lung) was 23.1 µM, the TGI (BT-549 breast) was 44.9 µM and the TGI (NCI-H226 lung) was over 100 µM. The TGI (KM12 colon) was over 100 µM, the TGI (HOP-62 NSCLC) was over 100 µM and the TGI (PC-3 prostate) was over 100 µM. The TGI (SR leukemia) was over 25.9 µM, the TGI (UACC-257 melanoma) was 99.4 µM and the TGI (SK-MEL-2 melanoma) was over 100 µM. The TGI (MDA-MB-231 breast) was 70.6 µM, the TGI (K-562 leukemia) was over 100 µM and the TGI (RPMI-8226 leukemia) was over 22.6 µM. The TGI (SNB-75 CNS) was over 100 µM, the TGI (ACHN renal) was over 100 µM and the TGI (MDA-MB-435) was over 100 µM. For the same compound, the TGI (SF-539 CNS) was 38.4 µM, the TGI (EKVX NSCLC) was over 100 µM and the TGI (SK-MEL-5 melanoma) was over 100 µM. The TGI (HCT-116 colon) was 27.6 µM, the TGI (OVCAR-3 ovarian) was over 100 µM and the TGI (COLO 205 colon) was over 100 µM. For the same compound, the TGI (DU-145 prostate) was over 100 µM, the TGI (CCRF-CEM leukemia) was 6.29 µM and the TGI (MCF7 breast) was over 100 µM. For the same compound, the TGI (M14 melanoma) was over 79.8 µM, the TGI (UACC-62 melanoma) was over 57.4 µM and the TGI (IGROV1 ovarian) was over 95.5 µM. The TGI (SK-MEL-28 melanoma) was 45 µM, the TGI (HCT-15 colon) was 55 µM and the TGI (HL-60(TB) leukemia) was 92.2 µM. For the same compound, the TGI (SW-620 colon) was 15.9 µM, the TGI (HS 578T breast) was over 95.5 µM and the TGI (786-0 renal) was 27.5 µM. For the same compound, the TGI (NCI-H460 lung) was over 100 µM, the TGI (MDA-N) was 34.8 µM and the TGI (RXF 393 renal) was over 86.1 µM. The TGI (OVCAR-8 ovarian) was 18.3 µM.

`CCOC(=O)N(C)CCC1CC=CC(=O)C1c1cccc(OC)c1OC` (centres undefined) was tested, and the TGI (NCI/ADR-RES ovarian) was 80.1 µM, the TGI (HOP-92 NSCLC) was over 100 µM and the TGI (NCI-H23 lung) was 36.3 µM. It also gave a TGI (SN12C renal) of 39.7 µM, a TGI (CAKI-1 renal) of 91.6 µM and a TGI (UO-31 renal) of 35.9 µM. The TGI (TK-10 renal) was 65.3 µM, the TGI (HT29 colon) was 34.1 µM and the TGI (A549 NSCLC) was 91 µM. The TGI (SNB-19 CNS) was 85.6 µM, the TGI (SF-268 CNS) was 60 µM and the TGI (LOX IMVI melanoma) was over 100 µM. For the same compound, the TGI (A498 renal) was over 100 µM, the TGI (HCC-2998 colon) was 25.8 µM and the TGI (OVCAR-4 ovarian) was over 100 µM. It also gave a TGI (OVCAR-5 ovarian) of 46.7 µM, a TGI (MALME-3M melanoma) of 60.1 µM and a TGI (SF-295 CNS) of 98.8 µM. For the same compound, the TGI (T-47D breast) was 77.1 µM, the TGI (SK-OV-3 ovarian) was over 100 µM and the TGI (U251 CNS) was 43 µM. For the same compound, the TGI (NCI-H522 lung) was 27.5 µM, the TGI (BT-549 breast) was 34.3 µM and the TGI (KM12 colon) was 33.6 µM. It also gave a TGI (HOP-62 NSCLC) of over 100 µM, a TGI (PC-3 prostate) of over 100 µM and a TGI (SR leukemia) of 67.1 µM. It also gave a TGI (UACC-257 melanoma) of 39.3 µM, a TGI (SK-MEL-2 melanoma) of 35 µM and a TGI (MDA-MB-231 breast) of over 100 µM. For the same compound, the TGI (K-562 leukemia) was over 100 µM, the TGI (RPMI-8226 leukemia) was 46.6 µM and the TGI (ACHN renal) was over 100 µM. The TGI (MDA-MB-435) was 28.8 µM, the TGI (SF-539 CNS) was over 100 µM and the TGI (EKVX NSCLC) was 89.8 µM. The TGI (SK-MEL-5 melanoma) was 22 µM, the TGI (HCT-116 colon) was 27.6 µM and the TGI (OVCAR-3 ovarian) was 38.8 µM. It also gave a TGI (COLO 205 colon) of 17.8 µM, a TGI (MOLT-4 leukemia) of 64.5 µM and a TGI (DU-145 prostate) of 44.4 µM. The TGI (CCRF-CEM leukemia) was 35.7 µM, the TGI (MCF7 breast) was 56.6 µM and the TGI (M14 melanoma) was 55 µM. For the same compound, the TGI (UACC-62 melanoma) was 32.5 µM, the TGI (IGROV1 ovarian) was over 100 µM and the TGI (HCT-15 colon) was 31.1 µM. It also gave a TGI (HL-60(TB) leukemia) of 52.5 µM, a TGI (SW-620 colon) of over 100 µM and a TGI (HS 578T breast) of over 100 µM. For the same compound, the TGI (786-0 renal) was 45.7 µM, the TGI (NCI-H460 lung) was 48.2 µM and the TGI (MDA-N) was 36.4 µM. It also gave a TGI (RXF 393 renal) of 27.5 µM and a TGI (OVCAR-8 ovarian) of over 100 µM.
